For 1 compound, Triple point temperature results are on record in the NIST ThermoML archive (doi:10.1016/j.jct.2016.03.009).

The structures appear in SMILES notation. ± gives the expanded uncertainty stated by the source.

For the data set the following is noted: Crystal 2; DSC.

In the case of `[Ag+].[S-2].[S-2].[Sb+3]` [antimony(III) silver(I) sulfide], the Triple point temperature is 648.6 ± 2.1 K.
